For the test, the system named is Salmonella typhimurium ATCC14028 Biofilms. Description: Inhibitory effect of test compounds on Salmonella typhimurium ATCC14028 biofilms (crystal violet, 96-well). The test is classed as cell-based. The following applies: for antibiofilm activity (in words): compared with parent compound 1. As to the method: Procedure to Determine the Inhibitory Effect of Test Compounds on Salmonella typhimurium ATCC14028 Biofilms: […] Stock solutions of predetermined concentrations of the test compounds were then made in 1 mL of bacterial culture. […] Sample plates were then incubated for 24 h at 30° C. After incubation, the medium was discarded from the wells and the plates were washed thoroughly with water. Plates were then stained with 110 μL of 0.1% solution of crystal violet (CV) and then incubated at ambient temperature for 30 min. Plates were washed with water again and the remaining stain was solubilized with 200 μL of 95% ethanol. A sample of 125 μL of solubilized CV stain from each well was transferred to the corresponding wells of a polystyrene microtiter dish. Biofilm inhibition was quantitated by measuring the OD540 of each well in which a negative control lane wherein no biofilm was formed served as a background and was subtracted out.

Where [1] appears, read: Salmonella enterica, 24 h, read-out: IC50 (μM), inhibition of biofilm formation, S. typhimurium ATCC14028, 24 h at 30° C., crystal violet OD540.
Where [2] appears, read: read-out: IC50 (μM), inhibition of biofilm formation, S. typhimurium ATCC14028, 24 h at 30° C., crystal violet OD540.
Setting [3] is: read-out: IC50 (μM), inhibition of biofilm formation, S. typhimurium ATCC14028, 24 h at 30° C., crystal violet OD540, hydrochloride.

Each structure is given as a SMILES string. Structures can show the parent of a compound that is named as a salt. Where two headings read alike, the source gives them in different places.

Turning to `CCCCCCn1c(N)nc2cc(NC(=O)c3ccc(CCCCC)cc3)ccc21` [Compound 5c, N-(2-Amino-1-hexyl-1H-benzo[d]imidazol-5-yl)-4-pentylbenzamide hydrochloride], under setting [1], the IC50 was determined as 10.8 ± 0.56 µM.

For `CCCCCc1ccc(C(=O)Nc2ccc3nc(N)n(C)c3c2)cc1` [Compound 9c, N-(2-Amino-1-methyl-1H-benzo[d]imidazol-6-yl)-4-pentylbenzamide hydrochloride], under setting [1], the IC50 was in the range of 20 to 40 µM.

For `CCCCCc1ccc(C(=O)Nc2ccc3c(c2)nc(N)n3CC(C)C)cc1` [Compound 5d, N-(2-Amino-1-isbutyl-1H-benzo[d]imidazol-5-yl)-4-pentylbenzamide hydrochloride], the IC50 under setting [2] was 10 to 15 µM.

Consider `CCCCCc1ccc(C(=O)Nc2ccc3c(c2)nc(N)n3C(C)C)cc1.Cl` [Compound 5k, N-(2-Amino-1-isopropyl-1H-benzo[d]imidazol-5-yl)-4-pentylbenzamide hydrochloride], for which the “antibiofilm activity (in words)” value is given as “reduced or completely abolished antibiofilm activity”. In addition, the half-inhibitory concentration (IC50) under setting [1] lay within 20 to 40 µM.

As to `CCCCCc1ccc(C(=O)Nc2ccc3c(c2)nc(N)n3C)cc1.Cl` [Compound 5l, N-(2-Amino-1-methyl-1H-benzo[d]imidazol-5-yl)-4-pentylbenzamide hydrochloride], the “antibiofilm activity (in words)” value is “reduced or completely abolished antibiofilm activity”. The IC50 under setting [1] is greater than 40 µM.

Regarding `CCCCCCCC(=O)Nc1ccc2c(c1)nc(N)n2CCCc1ccccc1` [Compound 10q, N-(2-Amino-1-(3-phenylpropyl)-1H-benzo[d]imidazol-5-yl)octanamide hydrochloride], the IC50 under setting [1] is greater than 40 µM.

As for `CCCCCCn1c(N)nc2ccc(NC(=O)c3ccc(CCCCC)cc3)cc21` [Compound 9b, N-(2-Amino-1-hexyl-1H-benzo[d]imidazol-6-yl)-4-pentylbenzamide hydrochloride], the IC50 under setting [1] lay in the range of 10 to 15 µM.

With `CCCCCc1ccc(C(=O)Nc2ccc3c(c2)nc(N)n3CCc2cnc[nH]2)cc1` [Compound 5j, N-(1-(2-(1H-Imidazol-5-yl)ethyl)-2-amino-1H-benzo[d]imidazol-5-yl)-4-pentylbenzamide dihydrochloride], the IC50 under setting [1] was in the range of 20 to 40 µM.

On to `CCCCCc1ccc(C(=O)Nc2ccc3c(c2)nc(N)n3CCCCc2ccccc2)cc1` [Compound 5b, N-(2-Amino-1-(4-phenylbutyl)-1H-benzo[d]imidazol-5-yl)-4-pentylbenzamide hydrochloride], for which, under setting [1], the IC50 amounted to 9.59 ± 0.23 µM.

Regarding `CCCCCc1ccc(C(=O)Nc2ccc3c(c2)nc(N)n3C2CCCCC2)cc1` [Compound 5h, N-(2-Amino-1-cyclohexyl-1H-benzo[d]imidazol-5-yl)-4-pentylbenzamide hydrochloride], under setting [1], the IC50 was 15 to 20 µM.

With `CCCCCc1ccc(C(=O)Nc2ccc3[nH]c(N)nc3c2)cc1` [Compound 5o, N-(2-Amino-1H-benzo[d]imidazol-5-yl)-4-pentylbenzamide hydrochloride], under setting [1], the IC50 was in the range of 20 to 40 µM.

Turning to `CCCCCCCCc1ccc(C(=O)Nc2ccc3c(c2)nc(N)n3CCCc2ccccc2)cc1` [Compound 10r, N-(2-Amino-1-(3-phenylpropyl)-1H-benzo[d]imidazol-5-yl)-4-octylbenzamide hydrochloride], the IC50 was greater than 40 µM under setting [1] and greater than 50 µM under setting [3].

In the case of `CCCCc1ccc(C(=O)Nc2ccc3c(c2)nc(N)n3CCCc2ccccc2)cc1` [Compound 10f, N-(2-Amino-1-(3-phenylpropyl)-1H-benzo[d]imidazol-5-yl)-4-butylbenzamide hydrochloride], under setting [1], the IC50 is 10 to 15 µM.

On to `CCCCCc1ccc(C(=O)Nc2ccc3nc(N)n(C(C)C)c3c2)cc1` [Compound 9e, N-(2-Amino-1-isopropyl-1H-benzo[d]imidazol-6-yl)-4-pentylbenzamide hydrochloride], for which the IC50 under setting [1] is 20 to 40 µM.

In the case of `CCCCCCCCCCn1c(N)nc2cc(NC(=O)c3ccc(CCCCC)cc3)ccc21.Cl` [Compound 5m, N-(2-Amino-1-decyl-1H-benzo[d]imidazol-5-yl)-4-pentylbenzamide hydrochloride], the “antibiofilm activity (in words)” value was “reduced or completely abolished antibiofilm activity”. For the same compound, the 50% inhibitory concentration (IC50) under setting [1] is greater than 50 µM.

Consider `CCCOc1ccc(C(=O)Nc2ccc3c(c2)nc(N)n3CCCc2ccccc2)cc1` [Compound 10g, N-(2-Amino-1-(3-phenylpropyl)-1H-benzo[d]imidazol-5-yl)-4-propoxybenzamide hydrochloride], for which the IC50 under setting [1] lay within 10 to 15 µM.

`CCCCCCCCC(=O)Nc1ccc2c(c1)nc(N)n2CCCc1ccccc1` [Compound 10n, N-(2-Amino-1-(3-phenylpropyl)-1H-benzo[d]imidazol-5-yl)nonanamide hydrochloride]: the IC50 under setting [1] lay in the range of 15 to 20 µM.

For the compound `CCCCCCCCn1c(N)nc2cc(NC(=O)c3ccc(CCCCC)cc3)ccc21` [Compound 5a, N-(2-Amino-1-octyl-1H-benzo[d]imidazol-5-yl)-4-pentylbenzamide hydrochloride], the IC50 under setting [1] stood at 6.66 ± 0.32 µM.

Regarding `CCCc1ccc(C(=O)Nc2ccc3c(c2)nc(N)n3CCCc2ccccc2)cc1` [Compound 10k, N-(2-Amino-1-(3-phenylpropyl)-1H-benzo[d]imidazol-5-yl)-4-propylbenzamide hydrochloride], the 50% inhibitory concentration (IC50) under setting [1] lay in the range of 15 to 20 µM.

Turning to `CCCCCCCCCCCCn1c(N)nc2cc(NC(=O)c3ccc(CCCCC)cc3)ccc21.Cl` [Compound 5n, N-(2-Amino-1-dodecyl-1H-benzo[d]imidazol-5-yl)-4-pentylbenzamide hydrochloride], the “antibiofilm activity (in words)” value is recorded as “reduced or completely abolished antibiofilm activity”. In addition, under setting [1], the IC50 is greater than 50 µM.

Regarding `CCCCOc1ccc(C(=O)Nc2ccc3c(c2)nc(N)n3CCCc2ccccc2)cc1` [Compound 10j, N-(2-Amino-1-(3-phenylpropyl)-1H-benzo[d]imidazol-5-yl)-4-butoxybenzamide hydrochloride], under setting [1], the IC50 was in the range of 15 to 20 µM.

With `CCCCCCCCCCCC(=O)Nc1ccc2c(c1)nc(N)n2CCCc1ccccc1` [Compound 10s, N-(2-Amino-1-(3-phenylpropyl)-1H-benzo[d]imidazol-5-yhdodecanamide hydrochloride], the IC50 under setting [3] was greater than 50 µM.

On to `CCCCCCCCCCCCCC(=O)Nc1ccc2c(c1)nc(N)n2CCCc1ccccc1` [Compound 10t, N-(2-Amino-1-(3-phenylpropyl)-1H-benzo[d]imidazol-5-yhtetradecanamide hydrochloride], for which, under setting [3], the IC50 was greater than 50 µM.

On to `CCCCCCCCCC(=O)Nc1ccc2c(c1)nc(N)n2CCCc1ccccc1` [Compound 10h, N-(2-Amino-1-(3-phenylpropyl)-1H-benzo[d]imidazol-5-y0decanamide hydrochloride], for which the IC50 under setting [2] fell in the range of 10 to 15 µM.

For the compound `Nc1nc2cc(NC(=O)c3cc(Br)cc(Br)c3)ccc2n1CCCc1ccccc1` [Compound 10c, N-(2-Amino-1-(3-phenylpropyl)-1H-benzo[d]imidazol-5-yl)-3,5-dibromobenzamide hydrochloride], the IC50 was less than 7 µM under setting [1] and 5.58 ± 0.21 µM (read-out: IC50 (μM), inhibition of biofilm formation, S. typhimurium ATCC14028, 24 h at 30° C., crystal violet OD540, listed as 15c, hydrochloride).

On to `CCCCCc1ccc(C(=O)Nc2ccc3c(c2)nc(N)n3CCc2ccccc2)cc1` [Compound 1, N-(2-Amino-1-phenethyl-1H-benzo[d]imidazol-5-yl)-4-pentylbenzamide hydrochloride], for which, under setting [1], the IC50 worked out at 13.1 ± 0.6 µM.

For `CCCCCc1ccc(C(=O)Nc2ccc3c(c2)nc(N)n3CCCC)cc1` [Compound 5f, N-(2-Amino-1-butyl-1H-benzo[d]imidazol-5-yl)-4-pentylbenzamide hydrochloride], the IC50 under setting [1] lay in the range of 15 to 20 µM.

In the case of `Nc1nc2cc(C(=O)Nc3ccc(Cl)c(Cl)c3)ccc2n1CCCc1ccccc1` [Compound 15, 2-Amino-N-(3,4-dichlorophenyl)-1-(3-phenylpropyl)-1H-benzo[d]imidazole-5-carboxamide hydrochloride], the half-inhibitory concentration (IC50) under setting [1] turned out to be 12.6 ± 1.8 µM.

As to `CCCCCc1ccc(C(=O)Nc2ccc3c(c2)nc(N)n3CCc2c[nH]c3ccccc23)cc1` [Compound 5e, N-(1-(2-(1H-Indol-3-yl)ethyl)-2-amino-1H-benzo[d]imidazol-5-yl)-4-pentylbenzamide hydrochloride], the IC50 under setting [1] lay in the range of 10 to 15 µM.

In the case of `CCc1ccc(C(=O)Nc2ccc3c(c2)nc(N)n3CCCc2ccccc2)cc1` [Compound 10o, N-(2-Amino-1-(3-phenylpropyl)-1H-benzo[d]imidazol-5-yl)-4-ethylbenzamide hydrochloride], under setting [1], the IC50 is 20 to 40 µM.

As to `Nc1nc2cc(NC(=O)c3ccc(Br)c(Br)c3)ccc2n1CCCc1ccccc1` [Compound 10b, N-(2-Amino-1-(3-phenylpropyl)-1H-benzo[d]imidazol-5-yl)-3,4-dibromobenzamide hydrochloride], the IC50 was less than 7 µM under setting [1] and 5.38 ± 0.79 µM (read-out: IC50 (μM), inhibition of biofilm formation, S. typhimurium ATCC14028, 24 h at 30° C., crystal violet OD540, listed as 15b, hydrochloride).

Consider `CCCCCCCc1ccc(C(=O)Nc2ccc3c(c2)nc(N)n3CCCc2ccccc2)cc1` [Compound 10m, N-(2-Amino-1-(3-phenylpropyl)-1H-benzo[d]imidazol-5-yl)-4-heptylbenzamide hydrochloride], for which, under setting [1], the IC50 fell in the range of 15 to 20 µM.

With `CCCCCc1ccc(C(=O)Nc2ccc3c(c2)nc(N)n3C2CCCC2)cc1` [Compound 5g, N-(2-Amino-1-cyclopentyl-1H-benzo[d]imidazol-5-yl)-4-pentylbenzamide hydrochloride], the IC50 under setting [1] lay in the range of 15 to 20 µM.

The record behind these values is US12390449B2, “Substituted 2-aminobenzimidazoles analogs as antibiofilm agents” (priority 2018, dated 2025).
